# Measurements published in the Kinase Knowledgebase extract (Sharma et al. 2016).
# Molecular target: PIK3CG (human) (UniProt P48736)
# Assay: Inhibition of PIK3CG Kinase Activity
# Sequence of PIK3CG (human) (P48736 whole entry, looked up): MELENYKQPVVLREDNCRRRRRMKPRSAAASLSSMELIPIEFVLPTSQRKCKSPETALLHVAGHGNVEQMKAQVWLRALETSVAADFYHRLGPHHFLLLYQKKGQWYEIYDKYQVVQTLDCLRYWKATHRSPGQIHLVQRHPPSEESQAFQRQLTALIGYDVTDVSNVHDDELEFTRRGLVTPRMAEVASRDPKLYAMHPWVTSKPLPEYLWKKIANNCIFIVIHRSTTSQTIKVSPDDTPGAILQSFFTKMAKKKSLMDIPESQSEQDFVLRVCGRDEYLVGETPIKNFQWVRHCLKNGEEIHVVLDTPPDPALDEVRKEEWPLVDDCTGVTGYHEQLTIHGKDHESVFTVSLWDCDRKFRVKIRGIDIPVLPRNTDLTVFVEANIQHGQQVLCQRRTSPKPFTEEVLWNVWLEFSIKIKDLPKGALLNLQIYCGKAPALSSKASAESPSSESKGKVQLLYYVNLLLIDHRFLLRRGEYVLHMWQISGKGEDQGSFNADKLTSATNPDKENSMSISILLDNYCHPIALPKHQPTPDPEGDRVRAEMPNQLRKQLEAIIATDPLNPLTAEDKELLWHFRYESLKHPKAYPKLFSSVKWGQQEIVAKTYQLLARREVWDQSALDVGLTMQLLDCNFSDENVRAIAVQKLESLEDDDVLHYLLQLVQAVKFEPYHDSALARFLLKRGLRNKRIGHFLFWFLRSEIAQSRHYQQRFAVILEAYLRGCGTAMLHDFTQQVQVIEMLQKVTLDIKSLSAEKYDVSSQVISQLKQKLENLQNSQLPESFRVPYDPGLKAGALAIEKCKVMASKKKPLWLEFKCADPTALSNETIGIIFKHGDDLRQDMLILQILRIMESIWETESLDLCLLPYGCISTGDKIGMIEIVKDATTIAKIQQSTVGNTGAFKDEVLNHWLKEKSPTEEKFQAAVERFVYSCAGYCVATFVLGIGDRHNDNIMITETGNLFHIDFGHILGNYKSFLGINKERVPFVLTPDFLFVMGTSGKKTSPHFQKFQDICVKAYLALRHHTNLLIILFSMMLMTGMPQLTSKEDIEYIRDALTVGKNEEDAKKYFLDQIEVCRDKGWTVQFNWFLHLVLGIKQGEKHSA
row,Compound,IC50 [nM]
1,Cc1nc(Nc2cc[nH]n2)sc1-c1ccc(S(C)(=O)=O)c(N2CCN(C)CC2)c1,< 600
2,CCN(CC)CCCNS(=O)(=O)c1cc(-c2sc(Nc3cc[nH]n3)nc2C)ccc1Cl,< 600
3,CNS(=O)(=O)c1ccc(-c2sc(Nc3cnccn3)nc2C)cc1,< 600
4,Cc1nc(Nc2cnccn2)sc1-c1ccc(S(C)(=O)=O)c(-n2ccnc2)c1,< 600
5,Cc1nc(Nc2cc[nH]n2)sc1-c1ccc(S(C)(=O)=O)c(C(F)(F)F)c1,< 600
6,COc1cncc(Nc2nc(C)c(-c3ccc(S(N)(=O)=O)cc3)s2)n1,< 600
7,Cc1nc(Nc2cc[nH]n2)sc1-c1cccc(S(N)(=O)=O)c1,< 600
8,Cc1nc(Nc2nnc(N3CCOCC3)s2)sc1-c1ccc(S(C)(=O)=O)c(C(F)(F)F)c1,< 600
9,Cc1nc(Nc2ccc(Cl)nn2)sc1-c1ccc(S(N)(=O)=O)cc1,< 600
10,Cc1nc(Nc2cncc(N3CCN(C)CC3)n2)sc1-c1ccc(S(N)(=O)=O)cc1,< 600
11,CCc1nccn1-c1cc(-c2sc(Nc3cnccn3)nc2C)ccc1S(C)(=O)=O,< 600
12,Cc1nc(Nc2cccnc2)sc1-c1ccc(S(N)(=O)=O)cc1,< 600
13,Cc1nc(Nc2nnc(N3CCN(C)CC3)s2)sc1-c1ccc(S(C)(=O)=O)c(C(F)(F)F)c1,< 600
14,Cc1nc(Nc2cnccn2)sc1-c1ccc(S(N)(=O)=O)c(Cl)c1,< 600
15,Cc1nc(Nc2cncc(Cl)n2)sc1-c1ccc(S(C)(=O)=O)c(C(F)(F)F)c1,< 600
16,Cc1nc(Nc2cnccn2)sc1-c1ccc(Cl)c(S(=O)(=O)NCCO)c1,< 600
17,Cc1nc(Nc2cnccn2)sc1-c1cccc(S(=O)(=O)NCCO)c1,< 600
18,Cc1cnc(Nc2nc(C)c(-c3ccc(C(=O)O)cc3)s2)s1,< 600
19,Cc1nc(Nc2cnccn2)sc1-c1ccc(S(C)(=O)=O)c(-n2ccnc2C)c1,< 600
20,COc1ccc(-c2sc(Nc3cnccn3)nc2C)cc1S(N)(=O)=O,< 600
21,Cc1nc(Nc2nncs2)sc1-c1ccc(S(N)(=O)=O)cc1,< 600

row,Compound,IC50 [nM]
1,Cc1nc(Nc2ccn(C)n2)sc1-c1ccc(S(C)(=O)=O)c(F)c1,< 600
2,Cc1csc(Nc2nc(C)c(-c3ccc(S(N)(=O)=O)cc3)s2)n1,< 600
3,Cc1nc(Nc2nnc(C3CCC(C(=O)O)CC3)s2)sc1-c1ccc(S(C)(=O)=O)c(C(F)(F)F)c1 (centres undefined),< 600
4,CCc1nnc(Nc2nc(C)c(-c3ccc(S(=O)(=O)NCCO)cc3)s2)s1,< 600
5,Cc1nc(Nc2ccn(C)n2)sc1-c1ccc(Cl)c(S(=O)(=O)NCCO)c1,< 600
6,Cc1nc(Nc2ccncc2)sc1-c1ccc(S(N)(=O)=O)cc1,< 600
7,Cc1nc(Nc2nccs2)sc1-c1ccc(Cl)c(S(=O)(=O)NCCO)c1,< 600
8,Cc1nc(Nc2nnn[nH]2)sc1-c1ccc(S(N)(=O)=O)cc1,< 600
9,Cc1nc(Nc2cc[nH]n2)sc1-c1ccc(S(C)(=O)=O)c(OCCN2CCOCC2)c1,< 600
10,CCCc1nccn1-c1cc(-c2sc(Nc3nnc(CC)s3)nc2C)ccc1S(C)(=O)=O,< 600
11,Cc1nc(Nc2cnccn2)sc1-c1ccc(S(=O)(=O)NC2CC2)cc1,< 600
12,Cc1nc(Nc2ccc(N3CCN(C)CC3)nc2)sc1-c1ccc(S(C)(=O)=O)cc1,< 600
13,Cc1nc(Nc2cccnc2)sc1-c1ccc(S(N)(=O)=O)c(Cl)c1,< 600
14,Cc1nc(Nc2cnccn2)sc1-c1ccc(S(C)(=O)=O)c(C(F)(F)F)c1,< 600
15,Cc1nc(Nc2cnccn2)sc1-c1ccc(Cl)c(S(N)(=O)=O)c1,< 600
16,Cc1nc(Nc2cnccn2)sc1-c1ccc(C(=O)O)cc1,< 600
17,Cc1nc(Nc2nnc(CCN3CCOCC3)s2)sc1-c1ccc(S(N)(=O)=O)cc1,< 600
18,Cc1nc(Nc2cc[nH]n2)sc1-c1cccc(S(=O)(=O)NCCO)c1,< 600
19,Cc1nnc(Nc2nc(C)c(-c3ccc(S(C)(=O)=O)c(-n4ccnc4)c3)s2)s1,< 600
20,Cc1nc(Nc2cc[nH]n2)sc1-c1ccc(C(=O)O)cc1,< 600
21,Cc1nc(Nc2cncc(NCCCO)n2)sc1-c1ccc(S(N)(=O)=O)cc1,< 600

row,Compound,IC50 [nM]
1,COc1ccc(Nc2nc(C)c(-c3ccc(S(N)(=O)=O)cc3)s2)cn1,< 600
2,COc1cc(Nc2nc(C)c(-c3ccc(S(N)(=O)=O)cc3)s2)ncn1,< 600
3,Cc1cc(Nc2nc(C)c(-c3ccc(Cl)c(S(=O)(=O)NCCO)c3)s2)n(C)n1,< 600
4,Cc1nc(Nc2nnc(CCN3CCOCC3)s2)sc1-c1ccc(S(C)(=O)=O)c(C(F)(F)F)c1,< 600
5,Cc1nnc(Nc2nc(C)c(-c3ccc(S(N)(=O)=O)cc3)s2)s1,< 600
6,CCc1nnc(Nc2nc(C)c(-c3cccc(S(N)(=O)=O)c3)s2)s1,< 600
7,Cc1nc(Nc2cc[nH]n2)sc1-c1ccc(S(C)(=O)=O)c(F)c1,< 600
8,Cc1nc(Nc2nnc(CC(=O)O)s2)sc1-c1ccc(S(N)(=O)=O)cc1,< 600
9,Cc1nc(Nc2cncc(N3CCN(C)CC3)n2)sc1-c1ccc(S(C)(=O)=O)c(C(F)(F)F)c1,< 600
10,Cc1nc(Nc2ccc(Cl)cn2)sc1-c1ccc(S(N)(=O)=O)cc1,< 600
11,Cc1nc(Nc2nccs2)sc1-c1ccc(S(N)(=O)=O)cc1,< 600
12,CNS(=O)(=O)c1ccc(-c2sc(Nc3cncc(OC)n3)nc2C)cc1,< 600
13,Cc1nc(Nc2cncc(Cl)n2)sc1-c1ccc(S(C)(=O)=O)cc1,< 600
14,Cc1nc(Nc2nnc(CCC(=O)O)s2)sc1-c1ccc(S(N)(=O)=O)cc1,< 600
15,Cc1nc(Nc2cc[nH]n2)sc1-c1ccc(S(C)(=O)=O)c(-n2ccnc2)c1,< 600
16,COc1cncc(Nc2nc(C)c(-c3ccc(S(=O)(=O)NC4CC4)cc3)s2)n1,< 600
17,Cc1nc(Nc2cncc(Cl)n2)sc1-c1ccc(S(N)(=O)=O)cc1,< 600
18,CCOc1cccc(Nc2nc(C)c(-c3ccc(S(N)(=O)=O)cc3)s2)n1,< 600
19,Cc1nc(Nc2nc[nH]n2)sc1-c1ccc(S(N)(=O)=O)cc1,< 600
20,COc1ccc(Nc2nc(C)c(-c3ccc(Cl)c(S(C)(=O)=O)c3)s2)cn1,< 600
21,CCCc1nccn1-c1cc(-c2sc(Nc3cc[nH]n3)nc2C)ccc1S(C)(=O)=O,< 600

row,Compound,IC50 [nM]
1,Cc1nc(Nc2ncccn2)sc1-c1ccc(S(N)(=O)=O)cc1,< 600
2,Cc1nc(Nc2cnccn2)sc1-c1ccc(S(C)(=O)=O)cc1,< 600
3,Cc1nc(Nc2cnccn2)sc1-c1ccc(S(C)(=O)=O)c(-n2ccnc2C(C)C)c1,< 600
4,Cc1nc(Nc2cnccn2)sc1-c1ccc(S(N)(=O)=O)cc1,< 600
5,Cc1nc(Nc2nnc(CCN(C)C)s2)sc1-c1ccc(S(N)(=O)=O)cc1,< 600
6,Cc1nc(Nc2cccnc2)sc1-c1ccc(S(C)(=O)=O)c(Cl)c1,< 600
7,Cc1nc(Nc2nnc(CCC(=O)O)s2)sc1-c1ccc(S(C)(=O)=O)c(C(F)(F)F)c1,< 600
8,CCN(CC)CCCNc1cncc(Nc2nc(C)c(-c3ccc(S(N)(=O)=O)cc3)s2)n1,< 600
9,Cc1cnc(Nc2nc(C)c(-c3ccc(Cl)c(S(=O)(=O)NCCO)c3)s2)s1,< 600
10,Cc1nc(Nc2cc[nH]n2)sc1-c1ccc(Cl)c(S(=O)(=O)NCCO)c1,< 600
11,Cc1nc(Nc2cc[nH]n2)sc1-c1ccc(S(N)(=O)=O)cc1,< 600
12,Cc1nc(Nc2ccccn2)sc1-c1ccc(S(N)(=O)=O)cc1,< 600
13,Cc1nc(Nc2cncc(NCCN3CCOCC3)n2)sc1-c1ccc(S(N)(=O)=O)cc1,< 600
14,Cc1nc(Nc2cncc(N3CCOCC3)n2)sc1-c1ccc(S(N)(=O)=O)cc1,< 600
15,Cc1nc(Nc2cnccn2)sc1-c1ccc([S+](C)[O-])cc1 (centres undefined),< 600
16,Cc1nc(Nc2cc[nH]n2)sc1-c1ccc(Cl)c(S(=O)(=O)N(CCO)CCO)c1,< 600
17,Cc1cnc(Nc2nc(C)c(-c3ccc(S(N)(=O)=O)cc3)s2)s1,< 600
18,CCN(CC)CCN(C)c1cc(-c2sc(Nc3cc[nH]n3)nc2C)ccc1S(C)(=O)=O,< 600
19,Cc1nc(Nc2n[nH]cc2Br)sc1-c1ccc(S(C)(=O)=O)c(F)c1,< 600
20,Cc1nc(Nc2cnccn2)sc1-c1cccc(S(N)(=O)=O)c1,< 600
21,CCOC(=O)CCc1nnc(Nc2nc(C)c(-c3ccc(S(N)(=O)=O)cc3)s2)s1,< 600
